# How the values were obtained:
# IFN = test: Cytokine Induction in Human Cells: interferon (IFN) secreted by PBMCs, A549/encephalomyocarditis bioassay; assay type: cell-based; conditions: 18 to 24 hours; also: call rule not given here
# How it was run: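 Human PBMCs from healthy donors at 1.5-2×10^6 cells/mL in RPMI with 10% FBS, exposed to compounds (typically 0.1 to 100 μM, ≤1% DMSO) for 18 to 24 h at 37° C. Secreted IFN measured by A549/encephalomyocarditis virus cytopathic-effect bioassay, in alpha reference units/mL against NIH human leukocyte IFN standard.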
# TNF = test: Cytokine Induction in Human Cells: tumor necrosis factor (TNF) secreted by PBMCs, ELISA; assay type: cell-based; conditions: 18 to 24 hours; also: call rule not given here
# How it was run: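 Human donor PBMCs at 1.5-2×10^6 cells/mL in RPMI with 10% FBS were exposed to compound, generally at 0.1 to 100 μM (≤1% DMSO final), for 18 to 24 h at 37 °C. Secreted TNF in supernatant was measured by ELISA and reported as pg/mL.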
# interferon α = test: Interferon (α) Induction in Human Cells (PBM's, 48 hours, A549 bioassay); assay type: cell-based; design: key: +: indicates that the compound induced interferon α at that particular concentration; −: indicates that the compound did not induce interferon α at that particular concentration; ±: indicates that the results were equivocal at that particular concentration; conditions: 48 hours incubation
# How it was run: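 Human PBMCs at 1×10^6/mL in RPMI 1640 with 25 mM HEPES and 10% heat-inactivated autologous serum were exposed to compound (initially about 0.1–5 μg/mL, ≤1% ethanol/DMSO) for 48 hours at 37° C. Secreted interferon was quantified by A549 cytopathic-effect bioassay with encephalomyocarditis virus, expressed as alpha reference units/mL against NIH HU IF-L standard.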
melting point [°C],SMILES,IFN induction (IFN; Dose Concentration 1.0 μM),IFN induction (IFN; Dose Concentration 10.0 μM),IFN induction (IFN; Dose Concentration 100.0 μM),TNF induction (TNF; Dose Concentration 1.0 μM),TNF induction (TNF; Dose Concentration 10.0 μM),TNF induction (TNF; Dose Concentration 100.0 μM),Interferon (α) Induction in Human Cells (interferon α; Dose Concentration 0.01 μg/mL),Interferon (α) Induction in Human Cells (interferon α; Dose Concentration 0.05 μg/mL),Interferon (α) Induction in Human Cells (interferon α; Dose Concentration 0.10 μg/mL),Interferon (α) Induction in Human Cells (interferon α; Dose Concentration 0.50 μg/mL),Interferon (α) Induction in Human Cells (interferon α; Dose Concentration 1.0 μg/mL),Interferon (α) Induction in Human Cells (interferon α; Dose Concentration 5.0 μg/mL),Interferon (α) Induction in Human Cells (interferon α; Dose Concentration 10.0 μg/mL),Interferon (α) Induction in Human Cells (interferon α; Dose Concentration 25.0 μg/mL),Interferon (α) Induction in Human Cells (interferon α; Dose Concentration 50.0 μg/mL)
222 to 226,"CC(C)Cn1cnc2c(N)nc3c(c21)NCCC3 [Example 33, 6,7,8,9-Tetrahydro-1-(2-methylpropyl)-1H-imidazo[4,5-c][1,5]naphthyridin-4-amine]",+,+,+,−,−,−,−,−,−,−,−,+,+,+,+
164 to 166,"CCCCc1nc2c(N)nc3c(c2n1CC(C)C)CCNC3 [Example 28, 2-Butyl-6,7,8,9-tetrahydro-1-(2-methylpropyl)-1H-imidazo[4,5-c][1,7]naphthyridin-4-amine]",+,+,+,−,+,+,−,±,+,+,+,+,+,+,
220 to 223,"CC(C)Cn1cnc2c(N)nc3c(c21)CCNC3 [Example 23, 6,7,8,9-Tetrahydro-1-(2-methylpropyl)-1H-imidazo[4,5-c][1,7]naphthyridin-4-amine]",+,+,−,−,±,−,,,,,−,−,−,−,
213 to 214,"CCCCc1nc2c(N)nc3cnccc3c2n1CC(C)C [Example 27, 2-Butyl-1-(2-methylpropyl)-1H-imidazo[4,5-c][1,7]naphthyridin-4-amine]",+,+,+,+,+,+,−,−,+,+,+,+,+,+,
228 to 230,"Cc1nc2c(N)nc3cccnc3c2n1CC(C)C [Example 36, 2-Methyl-1-(2-methylpropyl)-1H-imidazo[4,5-c][1,5]naphthyridin-4-amine]",+,+,+,−,+,−,−,+,+,+,+,+,+,+,+

# Source: patent US7678918B2, “Intermediates for imidazonaphthyridines” (3M Innovative Properties Company, priority 1997, dated 2010)
